Measurements taken from patent publication US20170190671A1, “BIS(ARYL)CATECHOL DERIVATIVES AS HERBICIDES” (E I DU PONT DE NEMOURS AND COMPANY, priority 2014, published 2017).

How the values were obtained:
[1] = test system: winter wheat (Triticum aestivum); experiment: Test C postemergence; assay type: in vivo; conditions: Triticum aestivum, post-emergence, 336 h, Postemergence, scale 0 to 100, read-out: Plant response rating, Wheat
In short: (§1)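 Seeded loam-sand soil (preemergence) or young potted plants of 2-18 cm (postemergence) received test chemical formulated with surfactant in a non-phytotoxic solvent. Pots were kept in the greenhouse for 13-15 days before a visual 0-100 control rating relative to controls.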

corn (Zea mays) = experiment: Test C postemergence; assay type: in vivo; conditions: Zea mays, post-emergence, 336 h, Postemergence, scale 0 to 100
In short: as §1

[2] = test system: pigweed (Amaranthus retroflexus); experiment: Test C postemergence; assay type: in vivo; conditions: Amaranthus retroflexus, post-emergence, 336 h, Postemergence, scale 0 to 100, read-out: Plant response rating, Pigweed
In short: as §1

[3] = test system: oilseed rape (Brassica napus); experiment: Test C postemergence; assay type: in vivo; conditions: Brassica napus, post-emergence, Postemergence, scale 0 to 100, read-out: Plant response rating, Oilseed Rape
In short: as §1

[4] = test system: blackgrass (Alopecurus myosuroides); experiment: Test C postemergence; assay type: in vivo; conditions: Alopecurus myosuroides, post-emergence, 336 h, Postemergence, scale 0 to 100, read-out: Plant response rating, Blackgrass
In short: as §1

[5] = test system: yellow nutsedge (Cyperus esculentus); experiment: Test C postemergence; assay type: in vivo; conditions: Cyperus, post-emergence, 336 h, Postemergence, scale 0 to 100, read-out: Plant response rating, Nutsedge, Yellow
In short: as §1

kochia (Kochia scoparia) = experiment: Test C postemergence; assay type: in vivo; conditions: Bassia scoparia, post-emergence, Postemergence, scale 0 to 100, read-out: Plant response rating, Kochia
In short: as §1

[6] = test system: chickweed (common chickweed, Stellaria media); experiment: Test C postemergence; assay type: in vivo; conditions: Stellaria media, post-emergence, Postemergence, scale 0 to 100, read-out: Plant response rating, Chickweed
In short: as §1

[7] = test system: waterhemp (common waterhemp, Amaranthus rudis); experiment: Test C postemergence; assay type: in vivo; conditions: Amaranthus tuberculatus, post-emergence, Postemergence, scale 0 to 100, read-out: Plant response rating, Waterhemp
In short: as §1

[8] = test system: velvetleaf (Abutilon theophrasti); experiment: Test C postemergence; assay type: in vivo; conditions: Abutilon theophrasti, post-emergence, Postemergence, scale 0 to 100, read-out: Plant response rating, Velvetleaf
In short: as §1

soybean (Glycine max) = experiment: Test C postemergence; assay type: in vivo; conditions: Glycine max, post-emergence, Postemergence, scale 0 to 100, read-out: Plant response rating, Soybean
In short: as §1

[9] = test system: large (Lg) crabgrass (Digitaria sanguinalis); experiment: Test C postemergence; assay type: in vivo; conditions: Digitaria sanguinalis, post-emergence, 336 h, Postemergence, scale 0 to 100, read-out: Plant response rating, Crabgrass, Large
In short: as §1

wild oat (Avena fatua) = experiment: Test C postemergence; assay type: in vivo; conditions: Avena fatua, post-emergence, Postemergence, scale 0 to 100, read-out: Plant response rating, Oat, Wild
In short: as §1

[10] = test system: johnsongrass (Sorghum halepense); experiment: Test C postemergence; assay type: in vivo; conditions: Sorghum halepense, post-emergence, 336 h, Postemergence, scale 0 to 100, read-out: Plant response rating, Johnsongrass
In short: as §1

[11] = test system: barnyardgrass (Echinochloa crus-galli); experiment: Test C postemergence; assay type: in vivo; conditions: Echinochloa crus-galli, post-emergence, Postemergence, scale 0 to 100, read-out: Plant response rating, Barnyardgrass
In short: as §1

[12] = test system: lambsquarters (Chenopodium album); experiment: Test C postemergence; assay type: in vivo; conditions: Chenopodium album, post-emergence, 336 h, Postemergence, scale 0 to 100, read-out: Plant response rating, Lambsquarters
In short: as §1

[13] = test system: ragweed (common ragweed, Ambrosia elatior); experiment: Test C postemergence; assay type: in vivo; conditions: Ambrosia artemisiifolia, post-emergence, 336 h, Postemergence, scale 0 to 100, read-out: Plant response rating, Ragweed
In short: as §1

[14] = test system: Italian ryegrass (Lolium multiflorum); experiment: Test C postemergence; assay type: in vivo; conditions: Lolium multiflorum, post-emergence, 336 h, Postemergence, scale 0 to 100, read-out: Plant response rating, Ryegrass, Italian
In short: as §1

[15] = test system: oilseed rape (Brassica napus); experiment: Test C preemergence; assay type: in vivo; conditions: Brassica napus, pre-emergence, scale 0 to 100, read-out: Plant response rating, Oilseed Rape
In short: as §1

[16] = test system: galium (catchweed bedstraw, Galium aparine); experiment: Test C preemergence; assay type: in vivo; conditions: Galium, pre-emergence, 336 h, scale 0 to 100, read-out: Plant response rating, Galium
In short: as §1

[17] = test system: morningglory (Ipomoea coccinea); experiment: Test C preemergence; assay type: in vivo; conditions: Ipomoea, pre-emergence, 336 h, scale 0 to 100, read-out: Plant response rating, Morningglory
In short: as §1

[18] = test system: waterhemp (common waterhemp, Amaranthus rudis); experiment: Test C preemergence; assay type: in vivo; conditions: Amaranthus tuberculatus, pre-emergence, scale 0 to 100, read-out: Plant response rating, Waterhemp
In short: as §1

Compound `Fc1cnc(Oc2c(F)ccc(F)c2Oc2ncc(F)cn2)nc1` [Compound 29, 2,2′-[(3,6-difluoro-1,2-phenylene)bis(oxy)]bis[5-fluoropyrimidine]] has a plant injury at 31 g/ha ([1]; 31 g ai/ha) of 0%, a plant injury at 62 g/ha ([1]; 62 g ai/ha) of 0% and a plant injury at 125 g/ha ([1]; 125 g ai/ha) of 0%. The Corn plant response rating (crop injury, 0 = no effect, 100 = complete kill) at 16 g/ha (corn (Zea mays); 16 g ai/ha) was 0%, the Corn plant response rating (crop injury, 0 = no effect, 100 = complete kill) at 31 g/ha (corn (Zea mays); 31 g ai/ha) was 0% and the Corn plant response rating (crop injury, 0 = no effect, 100 = complete kill) at 62 g/ha (corn (Zea mays); 62 g ai/ha) was 5%. It also gave a Corn plant response rating (crop injury, 0 = no effect, 100 = complete kill) at 125 g/ha (corn (Zea mays); 125 g ai/ha) of 5%, a pest or weed control at 31 g/ha ([2]; 31 g ai/ha) of 90% and a pest or weed control at 62 g/ha ([2]; 62 g ai/ha) of 95%. The pest or weed control at 125 g/ha ([2]; 125 g ai/ha) was 90%, the plant injury at 31 g/ha ([3]; 31 g ai/ha) was 60% and the plant injury at 62 g/ha ([3]; 62 g ai/ha) was 70%. The plant injury at 125 g/ha ([3]; 125 g ai/ha) was 90%, the pest or weed control at 16 g/ha ([4]; 16 g ai/ha) was 0% and the pest or weed control at 31 g/ha ([4]; 31 g ai/ha) was 0%. It also gave a pest or weed control at 62 g/ha ([4]; 62 g ai/ha) of 5%, a pest or weed control at 125 g/ha ([4]; 125 g ai/ha) of 20% and a pest or weed control at 31 g/ha ([5]; 31 g ai/ha) of 0%. The pest or weed control at 62 g/ha ([5]; 62 g ai/ha) was 0%, the pest or weed control at 125 g/ha ([5]; 125 g ai/ha) was 0% and the pest or weed control at 16 g/ha (kochia (Kochia scoparia); 16 g ai/ha) was 80%. For the same compound, the pest or weed control at 31 g/ha (kochia (Kochia scoparia); 31 g ai/ha) was 90%, the pest or weed control at 62 g/ha (kochia (Kochia scoparia); 62 g ai/ha) was 90% and the pest or weed control at 125 g/ha (kochia (Kochia scoparia); 125 g ai/ha) was 95%. It also gave a pest or weed control at 16 g/ha ([6]; 16 g ai/ha) of 45%, a pest or weed control at 31 g/ha ([6]; 31 g ai/ha) of 50% and a pest or weed control at 62 g/ha ([6]; 62 g ai/ha) of 50%. The pest or weed control at 125 g/ha ([6]; 125 g ai/ha) was 65%, the pest or weed control at 31 g/ha ([7]; 31 g ai/ha) was 85% and the pest or weed control at 62 g/ha ([7]; 62 g ai/ha) was 90%. The pest or weed control at 125 g/ha ([7]; 125 g ai/ha) was 95%, the pest or weed control at 31 g/ha ([8]; 31 g ai/ha) was 75% and the pest or weed control at 62 g/ha ([8]; 62 g ai/ha) was 75%. The pest or weed control at 125 g/ha ([8]; 125 g ai/ha) was 80%, the plant injury at 31 g/ha (soybean (Glycine max); 31 g ai/ha) was 70% and the plant injury at 62 g/ha (soybean (Glycine max); 62 g ai/ha) was 75%. The plant injury at 125 g/ha (soybean (Glycine max); 125 g ai/ha) was 85%, the pest or weed control at 16 g/ha ([9]; 16 g ai/ha) was 0% and the pest or weed control at 31 g/ha ([9]; 31 g ai/ha) was 0%. It also gave a pest or weed control at 62 g/ha ([9]; 62 g ai/ha) of 5%, a pest or weed control at 125 g/ha ([9]; 125 g ai/ha) of 10% and a pest or weed control at 31 g/ha (wild oat (Avena fatua); 31 g ai/ha) of 5%. It also gave a pest or weed control at 62 g/ha (wild oat (Avena fatua); 62 g ai/ha) of 30%, a pest or weed control at 125 g/ha (wild oat (Avena fatua); 125 g ai/ha) of 35% and a pest or weed control at 16 g/ha ([10]; 16 g ai/ha) of 0%. The pest or weed control at 31 g/ha ([10]; 31 g ai/ha) was 0%, the pest or weed control at 62 g/ha ([10]; 62 g ai/ha) was 20% and the pest or weed control at 125 g/ha ([10]; 125 g ai/ha) was 20%. It also gave a pest or weed control at 16 g/ha ([11]; 16 g ai/ha) of 0%, a pest or weed control at 31 g/ha ([11]; 31 g ai/ha) of 0% and a pest or weed control at 62 g/ha ([11]; 62 g ai/ha) of 5%. For the same compound, the pest or weed control at 125 g/ha ([11]; 125 g ai/ha) was 15%, the pest or weed control at 16 g/ha ([12]; 16 g ai/ha) was 75% and the pest or weed control at 31 g/ha ([12]; 31 g ai/ha) was 80%. For the same compound, the pest or weed control at 62 g/ha ([12]; 62 g ai/ha) was 85%, the pest or weed control at 125 g/ha ([12]; 125 g ai/ha) was 85% and the pest or weed control at 31 g/ha ([13]; 31 g ai/ha) was 70%. For the same compound, the pest or weed control at 62 g/ha ([13]; 62 g ai/ha) was 75%, the pest or weed control at 125 g/ha ([13]; 125 g ai/ha) was 80% and the pest or weed control at 31 g/ha ([14]; 31 g ai/ha) was 0%. For the same compound, the pest or weed control at 62 g/ha ([14]; 62 g ai/ha) was 35%, the pest or weed control at 125 g/ha ([14]; 125 g ai/ha) was 20% and the melting point was 158 to 161 °C. It also gave a plant injury at 31 g/ha ([15]; 31 g ai/ha, preemergence) of 98%, a plant injury at 62 g/ha ([15]; 62 g ai/ha, preemergence) of 95% and a plant injury at 125 g/ha ([15]; 125 g ai/ha, preemergence) of 95%. The plant injury at 16 g/ha ([15]; Preemergence, 16 g ai/ha) was 95%, the pest or weed control at 31 g/ha ([16]; 31 g ai/ha, preemergence) was 100% and the pest or weed control at 62 g/ha ([16]; 62 g ai/ha, preemergence) was 100%. It also gave a pest or weed control at 125 g/ha ([16]; 125 g ai/ha, preemergence) of 100%, a pest or weed control at 16 g/ha ([16]; Preemergence, 16 g ai/ha) of 95% and a pest or weed control at 31 g/ha ([17]; 31 g ai/ha, preemergence) of 75%. The pest or weed control at 62 g/ha ([17]; 62 g ai/ha, preemergence) was 80%, the pest or weed control at 125 g/ha ([17]; 125 g ai/ha, preemergence) was 85% and the pest or weed control at 16 g/ha ([17]; Preemergence, 16 g ai/ha) was 55%. The pest or weed control at 31 g/ha ([18]; 31 g ai/ha, preemergence) was 100%, the pest or weed control at 62 g/ha ([18]; 62 g ai/ha, preemergence) was 100% and the pest or weed control at 125 g/ha ([18]; 125 g ai/ha, preemergence) was 100%. For the same compound, the pest or weed control at 16 g/ha ([18]; Preemergence, 16 g ai/ha) was 100%.
